# Experimental data: patent US20240174662A1, “SMALL MOLECULE INHIBITORS OF SALT INDUCIBLE KINASES” (Janssen Biotech, Inc., priority 2021, published 2024)
# Molecular target: SIK2 (Homo sapiens (Human), UniProt Q9H0K1)
# Experiment: SIK2 Enzymatic Assay Version 2 (High ATP)
# Format: biochemical
# Conditions: 3 mM ATP and 200 μM HDAC5tide final, ADP-Glo Max luminescence
# Procedure, shortened: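 Run at room temperature; SIK2 enzyme at 6 nM (2× final) preincubated with compound 30 min before reaction. ADP formation detected by ADP-Glo Max (2 h reagent, 1 h detection) with luminescence read-out.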
# SIK2, sequence (Q9H0K1 whole entry, species assumed): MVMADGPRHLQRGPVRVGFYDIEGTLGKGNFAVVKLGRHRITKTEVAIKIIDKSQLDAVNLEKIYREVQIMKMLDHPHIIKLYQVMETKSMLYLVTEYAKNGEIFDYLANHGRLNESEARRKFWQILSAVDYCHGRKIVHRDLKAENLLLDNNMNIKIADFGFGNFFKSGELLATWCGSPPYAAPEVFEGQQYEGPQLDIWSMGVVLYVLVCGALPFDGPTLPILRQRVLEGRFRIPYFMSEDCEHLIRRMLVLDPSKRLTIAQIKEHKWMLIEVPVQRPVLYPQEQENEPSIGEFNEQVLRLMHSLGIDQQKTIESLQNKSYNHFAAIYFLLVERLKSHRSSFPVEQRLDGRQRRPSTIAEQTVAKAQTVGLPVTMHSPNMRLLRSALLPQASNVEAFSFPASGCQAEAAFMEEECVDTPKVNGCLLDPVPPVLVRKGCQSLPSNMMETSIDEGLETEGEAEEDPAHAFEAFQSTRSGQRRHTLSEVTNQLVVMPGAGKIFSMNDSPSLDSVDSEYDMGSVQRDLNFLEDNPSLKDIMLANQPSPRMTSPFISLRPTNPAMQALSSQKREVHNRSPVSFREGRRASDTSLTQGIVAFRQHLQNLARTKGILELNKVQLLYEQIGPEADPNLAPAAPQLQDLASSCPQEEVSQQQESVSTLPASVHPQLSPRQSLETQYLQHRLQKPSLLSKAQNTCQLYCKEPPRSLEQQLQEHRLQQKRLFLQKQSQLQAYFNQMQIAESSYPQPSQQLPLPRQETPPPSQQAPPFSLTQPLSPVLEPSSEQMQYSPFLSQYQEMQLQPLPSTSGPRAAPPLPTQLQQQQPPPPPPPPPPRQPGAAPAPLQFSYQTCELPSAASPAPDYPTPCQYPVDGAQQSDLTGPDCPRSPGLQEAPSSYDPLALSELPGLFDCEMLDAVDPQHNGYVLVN
row,IC50,SMILES
1,10.9 nM,"Cc1cc(Nc2cc3cc(-c4c(OC[C@H]5OCC[C@@H]5O)cnn4C(F)F)ccn3n2)nc(C)n1 [Example 99, (2R,3S)-2-[[1-(difluoromethyl)-5-[2-[(2,6-dimethylpyrimidin-4-yl)amino]pyrazolo[1,5-a]pyridin-5-yl]pyrazol-4-yl]oxymethyl]tetrahydrofuran-3-ol]"
2,14.5 nM,"Cn1ncc(COC2CNCC2(F)F)c1-c1ccn2nc(NC(=O)C3CC3)cc2c1 (racemic) [Example 184, (RS)—N-[5-[4-[(4,4-difluoropyrrolidin-3-yl)oxymethyl]-2-methyl-pyrazol-3-yl]pyrazolo[1,5-a]pyridin-2-yl]cyclopropanecarboxamide]"
3,13.5 nM,"COC1(COc2noc(C)c2-c2ccn3nc(Nc4cnccn4)cc3c2)CNC1 [Example 318, 5-[3-[(3-methoxyazetidin-3-yl)methoxy]-5-methyl-isoxazol-4-yl]-N-pyrazin-2-yl-pyrazolo[1,5-a]pyridin-2-amine]"
4,14.4 nM,"Cc1cc(Nc2cc3cc(-c4c(O[C@@H]5CN[C@H](C)C5)noc4C)ccn3n2)nc(C)n1 [Example 90, N-(2,6-dimethylpyrimidin-4-yl)-5-[5-methyl-3-[(3S,5R)-5-methylpyrrolidin-3-yl]oxy-isoxazol-4-yl]pyrazolo[1,5-a]pyridin-2-amine]"
5,78.7 nM,"CN1CC[C@H](Oc2cnn(C)c2-c2ccn3nc(Nc4cncc(C(F)(F)F)n4)cc3c2)C1 [Example 7, 5-[2-methyl-4-[(3S)-1-methylpyrrolidin-3-yl]oxy-pyrazol-3-yl]-N-[6-(trifluoromethyl)pyrazin-2-yl]pyrazolo[1,5-a]pyridin-2-amine]"
6,7.6 nM,"Cc1onc(OC[C@H](c2ccccc2)N(C)C)c1-c1ccn2nc(NC(=O)C3CC3)cc2c1 [Example 207, N-[5-[3-[(2S)-2-(dimethylamino)-2-phenyl-ethoxy]-5-methyl-isoxazol-4-yl]pyrazolo[1,5-a]pyridin-2-yl]cyclopropanecarboxamide]"
7,15.3 nM,"Cc1onc(OC[C@H]2CCN2CC#N)c1-c1ccn2nc(NC(=O)C3CC3)cc2c1 [Example 213, N-[5-[3-[[(2R)-1-(cyanomethyl)azetidin-2-yl]methoxy]-5-methyl-isoxazol-4-yl]pyrazolo[1,5-a]pyridin-2-yl]cyclopropanecarboxamide]"
8,54.8 nM,"CN1CC[C@H](Oc2cnn(C)c2-c2ccn3nc(Nc4cnc5ccccc5n4)cc3c2)C1 [Example 343, N-[5-[2-methyl-4-[(3S)-1-methylpyrrolidin-3-yl]oxy-pyrazol-3-yl]pyrazolo[1,5-a]pyridin-2-yl]quinoxalin-2-amine]"
9,88 nM,"Cc1cc(Nc2cc3cc(-c4c(OC[C@H]5C[C@H](O)C5)cnn4C)ccn3n2)nc(C)n1 [Example 438, 3-[[5-[2-[(2,6-dimethylpyrimidin-4-yl)amino]pyrazolo[1,5-a]pyridin-5-yl]-1-methyl-pyrazol-4-yl]oxymethyl]cyclobutanol]"
10,45.6 nM,"CC(=O)CN1CC[C@@H]1COc1cnn(C)c1-c1ccn2nc(NC(=O)C3CC3)cc2c1 [Example 251, N-[5-[4-[[(2R)-1-acetonylazetidin-2-yl]methoxy]-2-methyl-pyrazol-3-yl]pyrazolo[1,5-a]pyridin-2-yl]cyclopropanecarboxamide]"
11,19.7 nM,"Cc1cc(Nc2cc3cc(-c4c(OC[C@@H]5CCN5C)cnn4C)ccn3n2)nc(C)n1 [Example 139, N-(2,6-dimethylpyrimidin-4-yl)-5-[2-methyl-4-[[(2S)-1-methylazetidin-2-yl]methoxy]pyrazol-3-yl]pyrazolo[1,5-a]pyridin-2-amine]"
12,3.3 nM,"Cc1nc(Nc2cc3cc(-c4c(OC[C@H]5CCN5C)cnn4C)ccn3n2)cc(C(=O)N(C)C)n1 [Example 108, N,N,2-trimethyl-6-[[5-[2-methyl-4-[[(2R)-1-methylazetidin-2-yl]methoxy]pyrazol-3-yl]pyrazolo[1,5-a]pyridin-2-yl]amino]pyrimidine-4-carboxamide]"
13,23.8 nM,"Cc1onc(OC[C@H](c2ccccc2F)N(C)C)c1-c1ccn2nc(NC(=O)C3CC3)cc2c1 [Example 324, N-[5-[3-[(2S)-2-(dimethylamino)-2-(2-fluorophenyl)ethoxy]-5-methyl-isoxazol-4-yl]pyrazolo[1,5-a]pyridin-2-yl]cyclopropanecarboxamide]"
14,11.3 nM,"Cn1ncc(COC2(C)CNC2)c1-c1ccn2nc(NC(=O)C3CC3)cc2c1 [Example 191, N-[5-[2-methyl-4-[(3-methylazetidin-3-yl)oxymethyl]pyrazol-3-yl]pyrazolo[1,5-a]pyridin-2-yl]cyclopropanecarboxamide]"
15,2.8 nM,"CN1CC[C@@H]1COc1cnn(C)c1-c1ccn2nc(Nc3cnn(C)c3)cc2c1 [Example 142, 5-[2-methyl-4-[[(2R)-1-methylazetidin-2-yl]methoxy]pyrazol-3-yl]-N-(1-methylpyrazol-4-yl)pyrazolo[1,5-a]pyridin-2-amine]"
16,11.5 nM,"CO[C@H]1CNC[C@H]1Oc1noc(C)c1-c1ccn2nc(NC(=O)C3CC3)cc2c1 [Example 88, N-[5-[3-[(3R,4S)-4-methoxypyrrolidin-3-yl]oxy-5-methyl-isoxazol-4-yl]pyrazolo[1,5-a]pyridin-2-yl]cyclopropanecarboxamide]"
17,< 0.847 nM,"CCN1CC[C@@H]1COc1cnn(C)c1-c1ccn2nc(Nc3ccc(C)nn3)cc2c1 [Example 68, 5-[4-[[(2R)-1-ethylazetidin-2-yl]methoxy]-2-methyl-pyrazol-3-yl]-N-(6-methylpyridazin-3-yl)pyrazolo[1,5-a]pyridin-2-amine]"
18,4.7 nM,"Cc1cc(Nc2cc3cc(-c4c(O[C@@H]5CNC[C@@H]5F)noc4C)ccn3n2)nnc1C [Example 93, N-(5,6-dimethylpyridazin-3-yl)-5-[3-[(3R,4S)-4-fluoropyrrolidin-3-yl]oxy-5-methyl-isoxazol-4-yl]pyrazolo[1,5-a]pyridin-2-amine]"
19,36.5 nM,"CN1CC[C@H](Oc2cnn(C)c2-c2ccn3nc(Nc4ccn5nccc5n4)cc3c2)C1 [Example 268, N-[5-[2-methyl-4-[(3S)-1-methylpyrrolidin-3-yl]oxy-pyrazol-3-yl]pyrazolo[1,5-a]pyridin-2-yl]pyrazolo[1,5-a]pyrimidin-5-amine]"
20,14.6 nM,"C[C@@H]1[C@@H](COc2cnn(C)c2-c2ccn3nc(NC(=O)C4CC4)cc3c2)CN1C (single isomer, unassigned) [Example 41, trans-N-(5-(4-(((2*R,3*S)-1,2-dimethylazetidin-3-yl)methoxy)-1-methyl-1H-pyrazol-5-yl)pyrazolo[1,5-a]pyridin-2-yl)cyclopropanecarboxamide]"
21,27.4 nM,"Cc1onc(OC[C@@]23C[C@@H](CO2)N(C)C3)c1-c1ccn2nc(NC(=O)C3CC3)cc2c1 [Example 203, N-[5-[5-methyl-3-[[(1S,4S)-2-methyl-5-oxa-2-azabicyclo[2.2.1]heptan-4-yl]methoxy]isoxazol-4-yl]pyrazolo[1,5-a]pyridin-2-yl]cyclopropanecarboxamide]"
22,120 nM,"Cn1ncc(O[C@H]2CC[C@@H](O)CC2)c1-c1ccn2nc(NC(=O)C3CC3)cc2c1 [Example 404, N-[5-[4-(4-hydroxycyclohexoxy)-2-methyl-pyrazol-3-yl]pyrazolo[1,5-a]pyridin-2-yl]cyclopropanecarboxamide]"

row,SMILES,IC50
1,"Cc1onc(O[C@H]2C[C@H](N)C2)c1-c1ccn2nc(NC(=O)C3CC3)cc2c1 [Example 386, N-[5-[3-(3-aminocyclobutoxy)-5-methyl-isoxazol-4-yl]pyrazolo[1,5-a]pyridin-2-yl]cyclopropanecarboxamide]",111 nM
